Reference: patent US20200352918A1, “COMPOUNDS AND METHODS FOR TREATING OR PREVENTING FIBROSIS” (priority 2019, published 2020)

What was measured:
[1] = test system: bleomycin model of lung injury; experiment: Bleomycin-induced pulmonary fibrosis in aged mice; assay type: in vivo
Procedure: To define the anti-fibrotic effect of AA5, a bleomycin model of lung injury in aged mice was used as a model of lung fibrosis (FIG. 30A). 52-week-old mice were challenged with bleomycin (3 U/kg) by the oropharyngeal route to induce lung injury, followed by systemic administration of AA5 (20 mg/kg) or DMSO, from days 7-21 post bleomycin injury. Naïve mice were maintained as controls. The mice were sacrificed on day 21 and the total collagen content of the lungs was quantified using the hydroxyproline assay. […] The percentage of fibrotic areas from each section was quantified using hematoxylin and eosin staining, tiled and imaged on a Zeiss Axioscope microscope at 2.5× and quantified using the spline contour tool using the ZEN 2011 software.
Naive mice (n=4) without bleomycin were also monitored in the same manner throughout treatment period. […] Data represent min-max and median of collagen content relative to total protein content. ***P<0.001 **P<0.01 using one-way ANOVA and Sidak's multiple comparison test. FIGS. 30C and 30D show a representative H&E section of bleomycin treated lungs with the borders of the lung and fibrotic areas marked using the spline contour tool (FIG. 30C). […] Scale bar, 200 μm. […] Scale bars, 100 μm.

[2] = test system: Idiopathic Pulmonary Fibrosis patient lung slices; experiment: Ex vivo fibrotic lung slice culture (LSC) system; assay type: cell-based, human
Procedure: The Milliplex human cytokine/chemokine Panel IV, human TIMP Panel 2, and human TGFβ 1,2,3 magnetic bead kits (EMD Millipore) were used per manufacturer's instructions. Prior to plating, all samples tested for human TGFβ only were activated and neutralized with 1.0 N HCl and 1.0 N NaOH, respectively. Briefly, 25 μl of undiluted or treated cell culture supernatant samples were mixed with 25 μl of magnetic beads and allowed to incubate overnight at 4° C. while shaking. After washing the plates with wash buffer in a Biotek ELx405 washer, 25 μl of biotinylated detection antibody was added and incubated for 1 hour at room temperature while shaking. 25 μl of streptavidin-phycoerythrin conjugate was then added to the reaction mixture and incubated for another 30 minutes at room temperature while shaking. Following additional washes, beads were resuspended in sheath fluid, and fluorescence was quantified using a Luminex 200 instrument. Similarly, a custom magnetic Luminex assay kit of select analytes (R&D Systems) was used per manufacturer's instructions. Cell culture supernatants were prepared with a 2-fold dilution. 50 μl of diluted sample were added to 50 μl of provided micro-particle cocktail and incubated for 2 hours at room temperature while shaking. After washing with wash buffer, 50 μl of biotin antibody cocktail was added and incubated for 1 hour at room temperature while shaking. Following additional washes, 50 μl of diluted Streptavidin-PE was then added for incubation for 30 minutes at room temperature while shaking. The plate was then washed again and the micro-particles resuspended in 100 μl wash buffer. After an additional 2-minute incubation while shaking, the data was acquired using a Luminex 200 instrument.
Conditioned media at different time points of progression of the phenotype, and on prevention and resolution drug treatments were collected and quantification of protein was performed using the IBL man HMGB1 ELISA kit or LSBio NPTX1 ELISA kits per manufacturer's instructions. 10 μl of each supernatant sample was added to anti-HMGB1 polyclonal antibody-coated plate and incubated for 20 hours at 37° C. All liquid was then removed and the plate manually washed 5 times with wash buffer. 100 μl of enzyme conjugate was then added and incubated for 2 hours at room temperature. After washing again, color solution was added at 100 μl per well and incubated for 30 minutes at room temperature. Following an additional five washes, the plate was incubated with 90 μl of TMB substrate for another 15 minutes at 37° C. in the dark. The reaction was then stopped by addition 100 μl of stop solution. Absorbance was measured at 450 nm using a SpectraMAX Plate Reader. Data was analyzed using SoftMax Pro software.
In-vitro cultures of PF and cells in the iFA model were washed once with PBS and total RNA from the samples were extracted using the RNeasy Mini Kit (Qiagen) according to the manufacturer's instructions. For the lung slice cultures (LSC), tissues were snap-frozen after treatment and stored at −80° C. until RNA isolation. Lung slices were homogenized using a handheld homogenizer and passing the homogenate through a Qiashredder (Qiagen). Total RNA from the LSC and cells from the disease model were extracted using the RNeasy Mini Kit (Qiagen) according to the manufacturer's instructions. The RNA concentrations were measured on a NanoDrop ND-1000 spectrophotometer. Single-stranded cDNA was synthesized from 200 ng of total RNA using Superscript IV and random hexamer primers (Invitrogen) in a volume of 20 μl. cDNA was then used for qRT-PCR analysis. PCR reactions were performed using Taqman Gene Expression Assay mix (Applied Biosystems) according to the manufacturer's instructions.
All human samples were obtained in accordance with institute IRB. Tissue for lung slice experiments was obtained from patients with Idiopathic Pulmonary Fibrosis (IPF) at the time of lung transplant. […]

[3] = test system: iFA model; experiment: In situ cell elasticity by atomic force microscopy in the iFA model; assay type: cell-based, human; details: AA5 vs DMSO-treated iFA model
Procedure: Tapping mode AFM using the Bruker BioScope Catalyst Atomic Force coupled with Zeiss LSMS Confocal Fluorescence Microscope was used on the cells at 37° C. in cell culture media. AFM deflection images of cells were used in the imaging experiment. In the force measurement, sharp silicon nitride AFM probes (tip radius, 20 nm) were employed (Bruker Corp., USA). The spring constants of AFM tips were calibrated to be 0.10-0.11 N m^−1 and deflection sensitivities were 45-50 nm V^−1, using Thermo K Calibration (Agilent Technologies, USA). The approaching/retracting speed of the AFM tip during the force curve measurement was 6 μm s^−1. Force-distance curves were recorded to obtain cell elasticity (Young's modulus, E) of individual cells. For each time point, at least 20 single cells, 20 cells at the base of the iFA and 20 cells at the tip of the scar were measured with over 15 force-distance curves per cell to obtain significant results. The Young's modulus was calculated via the Scanning Probe Image Processor (SPIP) software (Image Metrology, Denmark) by converting the force-distance curves to force-separation curves and fitting the Sneddon variation of the Hertz model, which describes conical tips indenting elastic samples.

## Cc1c(C(=O)Nc2nc3ccccc3s2)sc2nc3cc4c(cc3cc12)OCO4 [AA5]
[1]; AA5 20 mg/kg systemic, days 7-21 post bleomycin, day 21, vs vehicle
  Total collagen of the lungs (hydroxyproline assay): significantly reduced total collagen
[1]; AA5 20 mg/kg vs vehicle, IF
  Type II marker pro-Surfactant Protein C (proSPC): qualitatively larger number
[1]; AA5 20 mg/kg, day 21
  Percentage of fibrotic areas (H&E): vehicle treated mice displayed significantly more fibrotic areas compared to the AA5 treated animals
[2]; 10 μM AA5, 48 hours
  Secretion of matrix degrading proteases MMP-9 and uPA: increased secretion
[2]; 10 μM AA5, 48 hours, vs DMSO, not TGF-β1/2
  ACTA-2, COL1A2 and TGF-β3 mRNA expression: significantly reduced
[2]; 10 μM AA5, 48 hours, not TGF-β1/2
  Secreted TGF-β3, TIMP-4 and POSTN protein: decreased levels
[2]; AA5-treated LSCs
  NPTX1 mRNA and protein level: upregulated
  Scavenger receptor CD163L1: upregulated and secreted
[2]; AA5-treated LSCs vs DMSO
  HMGB1 immunostaining: exclusively nuclear staining
[2]; AA5-treated LSCs, 48 hours
  Secreted HMGB1 (luminex): markedly decreased
[2]; AA5-treated LSCs, p value <0.001
  Reduction of fibrosis-initiating SSEA4+ cells: > 50%
[3]
  Cell stiffness: significantly decreased
